{
  "source": "patent US8809234B1",
  "about": "“Drift reduction compositions for agricultural use” (AgQuam LLC, priority 2011, dated 2014)",
  "type_in_all_cases": "in vivo",
  "conditions_in_all_cases": "Glyphosate 0.375 lb/acre; AMS 17 lb/100 gal, NIS, AQ 284 or AQ 268 […] v/v, INTERLOCK 4 fl oz/acre",
  "key": {"Corn": {"system": "Corn", "experiment": "Greenhouse study for weed control, corn", "method": "(§1) A greenhouse study was conducted to test the efficacy of the AQ 284 combination water conditioning adjuvant and drift reduction composition compared to the commercial standard (INTERLOCK). Greenhouse research was conducted with individual plants growing in 3×3×3 inch pots. Greenhouse treatments were applied with a track sprayer using an 8002 E single nozzle applying 20 gpa."}, "Sunflower": {"system": "Sunflower", "experiment": "Greenhouse study for weed control, sunflower", "method": "as §1"}, "Wheat": {"system": "Wheat", "experiment": "Greenhouse study for weed control, wheat", "method": "as §1"}, "Corn, Sunflower, Wheat": {"system": "Corn, Sunflower, Wheat", "experiment": "Greenhouse study for weed control, average of species", "method": "as §1"}},
  "data": [
    {"compound": "O=C(O)CNCP(=O)(O)O", "note": "[Glyphosate, N-(phosphonomethyl)glycine]", "values": [
      {"measurement": "Corn % Control 18 Days After Application", "setting": "Corn", "value": 10.0, "unit": "%"},
      {"measurement": "Sunflower % Control 18 Days After Application", "setting": "Sunflower", "value": 15.0, "unit": "%"},
      {"measurement": "Wheat % Control 18 Days After Application", "setting": "Wheat", "value": 15.0, "unit": "%"},
      {"measurement": "Average % Control 18 Days After Application", "setting": "Corn, Sunflower, Wheat", "value": 13.3, "unit": "%"}
    ]}
  ]
}
